Reference: ChEMBL document CHEMBL4706712, “Discovery and antitumor activity of Benzo[d]imidazol-containing 2,4-diarylaminopyrimidine analogues as ALK inhibitors with mutation-combating effects” (Bioorg Med Chem, 2021)

Key:
NCI-H2228 = assay: cells; conditions: Homo sapiens, NCI-H2228, 72 h
Description: Antiproliferative activity against human NCI-H2228 cells assessed as reduction in cell growth measured after 72 hrs by MTT assay

KARPAS-299 = assay: cells; conditions: Homo sapiens, KARPAS-299, 72 h
Description: Antiproliferative activity against human KARPAS-299 cells assessed as reduction in cell growth measured after 72 hrs by MTT assay

[1] = target: T1, Receptor-type tyrosine-protein kinase FLT3 (Homo sapiens, UniProt P36888); assay: Inhibition of N-terminal GST-tagged human FLT3 cytoplasmic domain (564 to 993 residues) expressed in baculovirus infected Sf21 insect cells using Srctide as substrate measured after 1 hr by mobility shift assay
T1 sequence (P36888 whole entry): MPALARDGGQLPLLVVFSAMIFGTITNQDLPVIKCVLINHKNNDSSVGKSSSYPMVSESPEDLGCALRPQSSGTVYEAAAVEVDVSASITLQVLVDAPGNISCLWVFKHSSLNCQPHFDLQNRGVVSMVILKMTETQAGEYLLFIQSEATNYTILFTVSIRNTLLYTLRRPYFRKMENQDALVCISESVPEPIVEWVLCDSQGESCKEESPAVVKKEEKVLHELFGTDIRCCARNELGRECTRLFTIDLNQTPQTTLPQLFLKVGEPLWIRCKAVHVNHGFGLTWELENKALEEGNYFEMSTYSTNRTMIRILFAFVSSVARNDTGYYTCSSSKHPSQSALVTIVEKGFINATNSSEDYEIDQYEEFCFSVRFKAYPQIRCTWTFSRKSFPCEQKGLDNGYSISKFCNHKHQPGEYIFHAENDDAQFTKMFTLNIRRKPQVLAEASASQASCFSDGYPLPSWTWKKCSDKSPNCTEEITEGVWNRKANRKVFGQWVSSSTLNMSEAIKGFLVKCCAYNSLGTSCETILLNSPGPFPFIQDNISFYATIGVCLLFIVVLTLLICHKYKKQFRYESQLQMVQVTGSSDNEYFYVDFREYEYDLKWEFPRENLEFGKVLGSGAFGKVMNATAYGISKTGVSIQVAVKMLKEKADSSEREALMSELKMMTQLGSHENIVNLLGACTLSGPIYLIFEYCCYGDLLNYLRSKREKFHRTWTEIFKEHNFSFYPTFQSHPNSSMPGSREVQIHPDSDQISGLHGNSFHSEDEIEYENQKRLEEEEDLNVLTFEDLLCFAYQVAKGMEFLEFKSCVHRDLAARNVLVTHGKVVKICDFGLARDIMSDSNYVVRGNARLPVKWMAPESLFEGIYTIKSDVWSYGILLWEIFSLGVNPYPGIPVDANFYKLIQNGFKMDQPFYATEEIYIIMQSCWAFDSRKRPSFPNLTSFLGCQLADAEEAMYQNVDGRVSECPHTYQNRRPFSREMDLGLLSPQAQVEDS

[2] = target: ALK tyrosine kinase receptor (Homo sapiens, UniProt Q9UM73); assay: Inhibition of human N-terminal GST-fused ALK cytoplasmic domain (1058 to 1620 residues) expressed in baculovirus infected Sf21 insect cells using Srctide as substrate measured after 1 hr by mobility shift assay
Chain of ALK tyrosine kinase receptor (Homo sapiens, UniProt Q9UM73) (Q9UM73 whole entry, the tested form may be a part): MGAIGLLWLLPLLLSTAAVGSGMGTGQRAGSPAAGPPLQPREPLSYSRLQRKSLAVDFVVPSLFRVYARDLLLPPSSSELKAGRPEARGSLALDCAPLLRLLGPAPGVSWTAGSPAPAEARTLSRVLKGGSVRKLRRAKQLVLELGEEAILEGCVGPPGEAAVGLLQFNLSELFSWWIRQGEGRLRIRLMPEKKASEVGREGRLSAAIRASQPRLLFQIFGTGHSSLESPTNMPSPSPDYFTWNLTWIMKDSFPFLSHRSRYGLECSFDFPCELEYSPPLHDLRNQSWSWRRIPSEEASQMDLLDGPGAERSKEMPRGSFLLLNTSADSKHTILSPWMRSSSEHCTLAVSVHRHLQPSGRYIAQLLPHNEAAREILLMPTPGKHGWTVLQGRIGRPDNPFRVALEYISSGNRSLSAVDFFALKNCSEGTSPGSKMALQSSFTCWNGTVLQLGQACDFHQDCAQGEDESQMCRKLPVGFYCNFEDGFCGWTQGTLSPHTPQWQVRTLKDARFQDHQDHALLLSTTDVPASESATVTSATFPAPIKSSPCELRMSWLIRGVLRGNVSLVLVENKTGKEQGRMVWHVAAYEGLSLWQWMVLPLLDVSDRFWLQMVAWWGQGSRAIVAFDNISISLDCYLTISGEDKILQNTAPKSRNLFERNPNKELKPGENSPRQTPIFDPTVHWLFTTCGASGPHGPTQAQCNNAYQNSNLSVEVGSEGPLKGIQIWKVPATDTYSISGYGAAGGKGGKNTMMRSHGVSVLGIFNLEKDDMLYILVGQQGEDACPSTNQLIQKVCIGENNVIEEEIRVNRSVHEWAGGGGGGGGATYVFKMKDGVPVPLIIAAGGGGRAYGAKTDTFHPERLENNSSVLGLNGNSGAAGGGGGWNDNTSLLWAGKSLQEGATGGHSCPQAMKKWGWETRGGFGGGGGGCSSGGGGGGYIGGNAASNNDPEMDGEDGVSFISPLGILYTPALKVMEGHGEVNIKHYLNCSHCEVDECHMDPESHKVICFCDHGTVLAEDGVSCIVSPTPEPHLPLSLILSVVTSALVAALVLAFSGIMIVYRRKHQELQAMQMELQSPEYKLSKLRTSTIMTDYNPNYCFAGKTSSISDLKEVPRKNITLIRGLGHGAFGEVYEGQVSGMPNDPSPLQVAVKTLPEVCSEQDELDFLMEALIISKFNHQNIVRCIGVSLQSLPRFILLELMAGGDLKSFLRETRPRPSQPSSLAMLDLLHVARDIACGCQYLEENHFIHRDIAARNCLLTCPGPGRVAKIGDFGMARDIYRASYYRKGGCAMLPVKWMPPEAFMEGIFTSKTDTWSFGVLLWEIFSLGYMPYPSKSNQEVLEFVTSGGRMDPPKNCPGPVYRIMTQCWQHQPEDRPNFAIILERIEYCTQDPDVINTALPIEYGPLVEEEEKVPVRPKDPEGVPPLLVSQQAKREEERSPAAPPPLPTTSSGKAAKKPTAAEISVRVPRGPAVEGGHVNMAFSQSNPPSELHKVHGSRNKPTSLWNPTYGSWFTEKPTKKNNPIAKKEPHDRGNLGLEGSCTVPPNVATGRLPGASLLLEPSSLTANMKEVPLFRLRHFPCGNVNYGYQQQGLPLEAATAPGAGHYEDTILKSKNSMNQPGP

[3] = target: ALK tyrosine kinase receptor (Homo sapiens, UniProt Q9UM73, G1202R); assay: Inhibition of human N-terminal GST-fused ALK G1202R mutant cytoplasmic domain (1058 to 1620 residues) expressed in baculovirus infected Sf21 insect cells using Srctide as substrate measured after 1 hr by mobility shift assay
Chain of ALK tyrosine kinase receptor (Homo sapiens, UniProt Q9UM73, G1202R) (Q9UM73 19-1620 G1202R limits assumed): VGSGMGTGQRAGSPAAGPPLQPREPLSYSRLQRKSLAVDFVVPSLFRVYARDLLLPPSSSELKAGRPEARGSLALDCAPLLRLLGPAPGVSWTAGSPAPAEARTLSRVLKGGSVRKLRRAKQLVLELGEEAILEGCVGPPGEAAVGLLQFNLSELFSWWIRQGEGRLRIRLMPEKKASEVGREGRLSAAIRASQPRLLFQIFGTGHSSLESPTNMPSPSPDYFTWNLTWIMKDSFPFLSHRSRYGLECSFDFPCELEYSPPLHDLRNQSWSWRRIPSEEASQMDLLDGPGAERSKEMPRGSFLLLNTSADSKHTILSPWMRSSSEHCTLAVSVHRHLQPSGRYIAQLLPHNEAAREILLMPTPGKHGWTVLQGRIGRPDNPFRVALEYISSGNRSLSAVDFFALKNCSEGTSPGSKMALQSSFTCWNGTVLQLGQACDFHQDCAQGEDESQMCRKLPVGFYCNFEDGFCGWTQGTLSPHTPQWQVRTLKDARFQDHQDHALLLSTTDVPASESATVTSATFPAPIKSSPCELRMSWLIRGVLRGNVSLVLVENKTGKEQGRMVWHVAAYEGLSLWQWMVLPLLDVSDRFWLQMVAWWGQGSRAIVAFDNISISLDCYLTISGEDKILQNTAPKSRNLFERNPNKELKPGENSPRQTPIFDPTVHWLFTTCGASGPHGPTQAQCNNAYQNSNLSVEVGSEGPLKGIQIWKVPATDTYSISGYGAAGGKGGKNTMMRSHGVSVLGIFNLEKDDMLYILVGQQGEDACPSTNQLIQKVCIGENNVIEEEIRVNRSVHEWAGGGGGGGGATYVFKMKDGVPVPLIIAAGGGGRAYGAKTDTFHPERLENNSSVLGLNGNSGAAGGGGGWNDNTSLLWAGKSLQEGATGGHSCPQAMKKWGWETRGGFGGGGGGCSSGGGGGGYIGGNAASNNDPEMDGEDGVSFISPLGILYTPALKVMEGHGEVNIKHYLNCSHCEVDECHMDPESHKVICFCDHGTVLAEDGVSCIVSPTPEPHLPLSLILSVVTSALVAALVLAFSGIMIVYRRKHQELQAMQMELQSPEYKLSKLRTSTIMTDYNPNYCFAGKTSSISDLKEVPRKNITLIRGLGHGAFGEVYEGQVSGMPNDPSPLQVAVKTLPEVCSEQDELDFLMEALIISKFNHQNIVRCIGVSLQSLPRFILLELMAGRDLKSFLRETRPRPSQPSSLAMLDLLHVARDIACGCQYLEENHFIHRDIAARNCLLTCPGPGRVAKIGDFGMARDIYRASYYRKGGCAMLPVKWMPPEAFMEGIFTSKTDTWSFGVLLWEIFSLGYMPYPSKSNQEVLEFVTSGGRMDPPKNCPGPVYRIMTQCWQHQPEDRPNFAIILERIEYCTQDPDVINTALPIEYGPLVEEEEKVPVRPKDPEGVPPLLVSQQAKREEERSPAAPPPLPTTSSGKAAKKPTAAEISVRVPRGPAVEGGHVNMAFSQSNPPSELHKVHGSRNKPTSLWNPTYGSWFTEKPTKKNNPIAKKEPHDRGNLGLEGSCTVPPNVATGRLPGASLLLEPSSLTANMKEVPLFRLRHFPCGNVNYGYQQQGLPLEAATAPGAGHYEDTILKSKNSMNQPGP

[4] = target: ALK tyrosine kinase receptor (Homo sapiens, UniProt Q9UM73, L1196M); assay: Inhibition of human N-terminal GST-fused ALK L1196M mutant cytoplasmic domain (1058 to 1620 residues) expressed in baculovirus infected Sf21 insect cells using Srctide as substrate measured after 1 hr by mobility shift assay
A549 = assay: cells; conditions: Homo sapiens, A549, 72 h
Description: Antiproliferative activity against human A549 cells assessed as reduction in cell growth measured after 72 hrs by MTT assay

[5] = target: Epidermal growth factor receptor (Homo sapiens, UniProt P00533); assay: Inhibition of N-terminal GST-tagged human EGFR cytoplasmic domain (669 to 1210 residues) expressed in baculovirus infected Sf21 insect cells using Srctide as substrate measured after 1 hr by mobility shift assay
Chain of Epidermal growth factor receptor (P00533 whole entry, the tested form may be a part): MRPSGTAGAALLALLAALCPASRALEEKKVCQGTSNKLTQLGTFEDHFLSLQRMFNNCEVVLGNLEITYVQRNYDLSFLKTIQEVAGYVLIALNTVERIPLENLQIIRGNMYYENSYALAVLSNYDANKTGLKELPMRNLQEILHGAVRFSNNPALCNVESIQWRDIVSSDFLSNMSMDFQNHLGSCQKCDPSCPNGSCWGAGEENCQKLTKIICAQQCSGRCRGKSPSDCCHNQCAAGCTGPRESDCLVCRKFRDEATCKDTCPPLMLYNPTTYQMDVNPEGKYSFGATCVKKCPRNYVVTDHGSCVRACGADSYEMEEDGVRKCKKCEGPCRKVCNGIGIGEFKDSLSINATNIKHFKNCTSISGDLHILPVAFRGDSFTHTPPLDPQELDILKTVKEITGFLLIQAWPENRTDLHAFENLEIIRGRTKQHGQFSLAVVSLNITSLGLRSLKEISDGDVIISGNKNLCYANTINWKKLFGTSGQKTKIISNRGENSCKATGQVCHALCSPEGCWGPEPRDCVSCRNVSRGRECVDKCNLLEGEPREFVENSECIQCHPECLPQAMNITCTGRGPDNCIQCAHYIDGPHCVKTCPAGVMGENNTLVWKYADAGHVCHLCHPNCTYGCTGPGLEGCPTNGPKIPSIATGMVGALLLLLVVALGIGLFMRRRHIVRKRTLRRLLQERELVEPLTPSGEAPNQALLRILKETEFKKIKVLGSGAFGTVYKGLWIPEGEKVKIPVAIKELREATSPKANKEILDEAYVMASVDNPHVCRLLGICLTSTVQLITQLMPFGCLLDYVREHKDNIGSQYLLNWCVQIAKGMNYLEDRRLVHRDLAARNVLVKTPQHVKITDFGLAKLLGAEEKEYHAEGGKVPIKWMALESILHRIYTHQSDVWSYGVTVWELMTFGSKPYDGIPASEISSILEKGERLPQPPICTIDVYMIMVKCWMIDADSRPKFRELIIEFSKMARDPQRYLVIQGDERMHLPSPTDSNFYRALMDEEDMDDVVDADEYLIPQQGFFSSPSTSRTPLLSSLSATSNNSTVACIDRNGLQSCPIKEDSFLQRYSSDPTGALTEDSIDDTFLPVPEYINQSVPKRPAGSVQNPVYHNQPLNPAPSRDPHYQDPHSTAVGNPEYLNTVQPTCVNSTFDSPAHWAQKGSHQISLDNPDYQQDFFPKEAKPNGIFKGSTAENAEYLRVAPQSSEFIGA

## Cc1cc(Nc2ncc(Cl)c(Nc3ccccc3S(=O)(=O)C(C)C)n2)c(OC(C)C)cc1C1CCNCC1 [CERITINIB]
NCI-H2228
  IC50: 107 nM
KARPAS-299
  IC50: 31 nM
[1]
  IC50: 86.4 nM

## CN(C)C(=O)c1ccccc1Nc1nc(Nc2ccc3nc(CN4CCCC4)[nH]c3c2)ncc1Cl
[2]
  IC50: 3.4 nM
[3]
  IC50: 13.3 nM
NCI-H2228
  IC50: 291 nM
KARPAS-299
  IC50: 54 nM
[4]
  IC50: 5.3 nM
A549
  IC50: > 10000 nM
[1]
  IC50: 103 nM
[5]
  IC50: > 1000 nM

## CNC(=O)c1ccccc1Nc1nc(Nc2ccc3nc(CN4CCC(C)CC4)[nH]c3c2)ncc1Cl
NCI-H2228
  IC50: 632 nM
KARPAS-299
  IC50: 77 nM
A549
  IC50: > 10000 nM

## CNC(=O)c1ccccc1Nc1nc(Nc2ccc3nc(CN(C)C)[nH]c3c2)ncc1Cl
NCI-H2228
  IC50: 338 nM
KARPAS-299
  IC50: 62 nM
A549
  IC50: 4790 nM

## CN(C)Cc1nc2ccc(Nc3ncc(Cl)c(Nc4ccccc4C(=O)N(C)C)n3)cc2[nH]1
[2]
  IC50: 3.2 nM
[3]
  IC50: 6.9 nM
NCI-H2228
  IC50: 127 nM
KARPAS-299
  IC50: 47 nM
[4]
  IC50: 3.8 nM
A549
  IC50: > 10000 nM
[1]
  IC50: > 200 nM
[5]
  IC50: > 1000 nM

## CS(=O)(=O)Nc1ccccc1Nc1nc(Nc2ccc3nc(CN4CCOCC4)[nH]c3c2)ncc1Cl
NCI-H2228
  IC50: 1070 nM
KARPAS-299
  IC50: 798 nM
A549
  IC50: > 10000 nM

## CCN1CCN(Cc2nc3ccc(Nc4ncc(Cl)c(Nc5ccccc5NS(C)(=O)=O)n4)cc3[nH]2)CC1
NCI-H2228
  IC50: 1030 nM
KARPAS-299
  IC50: 432 nM
A549
  IC50: > 10000 nM

## CN(C)C(=O)c1ccccc1Nc1nc(Nc2ccc3nc(CN4CCSCC4)[nH]c3c2)ncc1Cl
NCI-H2228
  IC50: 2350 nM
KARPAS-299
  IC50: 1290 nM
A549
  IC50: 7360 nM

## CS(=O)(=O)Nc1ccccc1Nc1nc(Nc2ccc3nc(CN4CCCC4)[nH]c3c2)ncc1Cl
NCI-H2228
  IC50: 347 nM
KARPAS-299
  IC50: 62 nM
A549
  IC50: 1860 nM

## CC(=O)Nc1ccccc1Nc1nc(Nc2ccc3nc(CN4CCN(CCO)CC4)[nH]c3c2)ncc1Cl
NCI-H2228
  IC50: 2360 nM
KARPAS-299
  IC50: 1350 nM
A549
  IC50: > 10000 nM

## CN(C)C(=O)c1ccccc1Nc1nc(Nc2ccc3nc(CN4CCCCC4)[nH]c3c2)ncc1Cl
NCI-H2228
  IC50: 337 nM
KARPAS-299
  IC50: 57 nM
A549
  IC50: 1870 nM

## CS(=O)(=O)Nc1ccccc1Nc1nc(Nc2ccc3nc(CN4CCC(O)CC4)[nH]c3c2)ncc1Cl
NCI-H2228
  IC50: 1300 nM
KARPAS-299
  IC50: 1290 nM
A549
  IC50: > 10000 nM

## CC1CCN(Cc2nc3ccc(Nc4ncc(Cl)c(Nc5ccccc5NS(C)(=O)=O)n4)cc3[nH]2)CC1
NCI-H2228
  IC50: 770 nM
KARPAS-299
  IC50: 136 nM
A549
  IC50: > 10000 nM

## CS(=O)(=O)Nc1ccccc1Nc1nc(Nc2ccc3nc(CN4CCCCC4)[nH]c3c2)ncc1Cl
[2]
  IC50: 5.3 nM
[3]
  IC50: 7.1 nM
NCI-H2228
  IC50: 429 nM
KARPAS-299
  IC50: 68 nM
[4]
  IC50: 8.4 nM
A549
  IC50: 6010 nM
[1]
  IC50: 186 nM
[5]
  IC50: > 1000 nM

## CN1CCN(Cc2nc3ccc(Nc4ncc(Cl)c(Nc5ccccc5NS(C)(=O)=O)n4)cc3[nH]2)CC1
[2]
  IC50: 3.6 nM
[3]
  IC50: 7 nM
[4]
  IC50: 4.9 nM
[1]
  IC50: 135 nM

## CN(C)C(=O)c1ccccc1Nc1nc(Nc2ccc3nc(CN4CCOCC4)[nH]c3c2)ncc1Cl
NCI-H2228
  IC50: 1270 nM
KARPAS-299
  IC50: 833 nM
A549
  IC50: > 10000 nM

## CC(=O)Nc1ccccc1Nc1nc(Nc2ccc3nc(CN(C)C)[nH]c3c2)ncc1Cl
NCI-H2228
  IC50: 507 nM
KARPAS-299
  IC50: 79 nM
A549
  IC50: > 10000 nM

## CC(=O)Nc1ccccc1Nc1nc(Nc2ccc3nc(CN4CCN(C)CC4)[nH]c3c2)ncc1Cl
NCI-H2228
  IC50: 230 nM
KARPAS-299
  IC50: 107 nM
A549
  IC50: > 10000 nM

## CCN(CC)Cc1nc2ccc(Nc3ncc(Cl)c(Nc4ccccc4C(=O)N(C)C)n3)cc2[nH]1
NCI-H2228
  IC50: 1450 nM
KARPAS-299
  IC50: 1230 nM
A549
  IC50: 2930 nM

## CCN(CC)Cc1nc2ccc(Nc3ncc(Cl)c(Nc4ccccc4NS(C)(=O)=O)n3)cc2[nH]1
NCI-H2228
  IC50: 1230 nM
KARPAS-299
  IC50: 79 nM
A549
  IC50: > 10000 nM

## CN1CCN(Cc2nc3ccc(Nc4ncc(Cl)c(Nc5ccccc5C(=O)N(C)C)n4)cc3[nH]2)CC1
[2]
  IC50: 2.7 nM
[3]
  IC50: 5.7 nM
[4]
  IC50: 3.8 nM
[1]
  IC50: > 200 nM

## CNC(=O)c1ccccc1Nc1nc(Nc2ccc3nc(CN4CCN(CCO)CC4)[nH]c3c2)ncc1Cl
NCI-H2228
  IC50: 1310 nM
KARPAS-299
  IC50: 391 nM
A549
  IC50: > 10000 nM

## CS(=O)(=O)Nc1ccccc1Nc1nc(Nc2ccc3nc(CN4CCSCC4)[nH]c3c2)ncc1Cl
NCI-H2228
  IC50: 3230 nM
KARPAS-299
  IC50: 1840 nM
A549
  IC50: > 10000 nM

## CN(C)C(=O)c1ccccc1Nc1nc(Nc2ccc3nc(CN4CCN(CCO)CC4)[nH]c3c2)ncc1Cl
NCI-H2228
  IC50: 1290 nM
KARPAS-299
  IC50: 249 nM
A549
  IC50: > 10000 nM

## CCN1CCN(Cc2nc3ccc(Nc4ncc(Cl)c(Nc5ccccc5C(=O)N(C)C)n4)cc3[nH]2)CC1
NCI-H2228
  IC50: 583 nM
KARPAS-299
  IC50: 203 nM
A549
  IC50: > 10000 nM

## CS(=O)(=O)Nc1ccccc1Nc1nc(Nc2ccc3nc(CN4CCN(CCO)CC4)[nH]c3c2)ncc1Cl
NCI-H2228
  IC50: 1720 nM
KARPAS-299
  IC50: 1030 nM
A549
  IC50: > 10000 nM

## CN(C)Cc1nc2ccc(Nc3ncc(Cl)c(Nc4ccccc4NS(C)(=O)=O)n3)cc2[nH]1
[2]
  IC50: 4 nM
[3]
  IC50: 8.2 nM
NCI-H2228
  IC50: 326 nM
KARPAS-299
  IC50: 56 nM
[4]
  IC50: 3.7 nM
A549
  IC50: 3010 nM
[1]
  IC50: > 200 nM
[5]
  IC50: > 1000 nM

## CC(C)N(Cc1nc2ccc(Nc3ncc(Cl)c(Nc4ccccc4NS(C)(=O)=O)n3)cc2[nH]1)C(C)C
NCI-H2228
  IC50: 3790 nM
KARPAS-299
  IC50: 2010 nM
A549
  IC50: 5370 nM

## CC(=O)Nc1ccccc1Nc1nc(Nc2ccc3nc(CN4CCC(C)CC4)[nH]c3c2)ncc1Cl
NCI-H2228
  IC50: 975 nM
KARPAS-299
  IC50: 193 nM
A549
  IC50: 6030 nM
